{"source": "the supplement of paper PMC10307832", "assay_in_all_cases": "relative viability (nuclei count vs DMSO), 5 days (fraction); higher = more cells survive", "key": {"GW-2580 + Luminespib": {"compound": "COC1=CC=C(C=C1)COC2=C(C=C(C=C2)CC3=CN=C(N=C3N)N)OC [GW-2580] + CCNC(=O)c1noc(-c2cc(C(C)C)c(O)cc2O)c1-c1ccc(CN2CCOCC2)cc1 [Luminespib] (partner 0.01 µM)", "method_in_brief": "(§1)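 Values are medians from duplicate plates. Each reflects relative viability, defined as the nuclei count of treated wells over that of vehicle wells. Lung cancer cell lines in 1536-well plates were pin-tool dosed one day after seeding with one drug alone or with a fixed anchor-drug dose plus five library-drug doses (not always all listed) in √10 steps, then fixed, stained and imaged at 4× after 5 days.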"}, "Fedratinib + OSI-027": {"compound": "Cc1cnc(Nc2ccc(OCCN3CCCC3)cc2)nc1Nc1cccc(S(=O)(=O)NC(C)(C)C)c1 [Fedratinib] + COc1cccc2cc(-c3nc([C@H]4CC[C@H](C(=O)O)CC4)n4ncnc(N)c34)[nH]c12 [OSI-027] (partner 0.5 µM)", "method_in_brief": "as §1"}, "Fedratinib + Tozasertib": {"compound": "Cc1cnc(Nc2ccc(OCCN3CCCC3)cc2)nc1Nc1cccc(S(=O)(=O)NC(C)(C)C)c1 [Fedratinib] + Cc1cc(Nc2cc(N3CCN(C)CC3)nc(Sc3ccc(NC(=O)C4CC4)cc3)n2)n[nH]1 [Tozasertib] (partner 0.1 µM)", "method_in_brief": "as §1"}, "Fedratinib + Alpelisib": {"compound": "Cc1cnc(Nc2ccc(OCCN3CCCC3)cc2)nc1Nc1cccc(S(=O)(=O)NC(C)(C)C)c1 [Fedratinib] + Cc1nc(NC(=O)N2CCC[C@H]2C(N)=O)sc1-c1ccnc(C(C)(C)C(F)(F)F)c1 [Alpelisib] (partner 2 µM)", "method_in_brief": "as §1"}, "Fedratinib + Olaparib": {"compound": "Cc1cnc(Nc2ccc(OCCN3CCCC3)cc2)nc1Nc1cccc(S(=O)(=O)NC(C)(C)C)c1 [Fedratinib] + O=C(c1cc(Cc2n[nH]c(=O)c3ccccc23)ccc1F)N1CCN(C(=O)C2CC2)CC1 [Olaparib] (partner 8 µM)", "method_in_brief": "as §1"}, "GW-2580 + Lapatinib": {"compound": "COC1=CC=C(C=C1)COC2=C(C=C(C=C2)CC3=CN=C(N=C3N)N)OC [GW-2580] + CS(=O)(=O)CCNCc1ccc(-c2ccc3ncnc(Nc4ccc(OCc5cccc(F)c5)c(Cl)c4)c3c2)o1 [Lapatinib] (partner 2 µM)", "method_in_brief": "as §1"}}}
{"cell line": "LCLC-103H", "values": [{"measurement": "relative viability", "setting": "GW-2580 + Luminespib; first compound 0.08 µM", "value": 1.01}, {"measurement": "relative viability", "setting": "GW-2580 + Luminespib; first compound 0.8 µM", "value": 0.895}, {"measurement": "relative viability", "setting": "GW-2580 + Luminespib; first compound 2.53 µM", "value": 0.844}, {"measurement": "relative viability", "setting": "GW-2580 + Luminespib; first compound 8 µM", "value": 0.839}, {"measurement": "relative viability", "setting": "Fedratinib + OSI-027; first compound 0.1 µM", "value": 0.415}, {"measurement": "relative viability", "setting": "Fedratinib + OSI-027; first compound 0.3162 µM", "value": 0.454}, {"measurement": "relative viability", "setting": "Fedratinib + OSI-027; first compound 1 µM", "value": 0.404}, {"measurement": "relative viability", "setting": "Fedratinib + Tozasertib; first compound 0.1 µM", "value": 0.304}, {"measurement": "relative viability", "setting": "Fedratinib + Tozasertib; first compound 0.3162 µM", "value": 0.524}, {"measurement": "relative viability", "setting": "Fedratinib + Tozasertib; first compound 1 µM", "value": 0.381}, {"measurement": "relative viability", "setting": "Fedratinib + Alpelisib; first compound 0.1 µM", "value": 1.07}, {"measurement": "relative viability", "setting": "Fedratinib + Alpelisib; first compound 0.3162 µM", "value": 0.816}, {"measurement": "relative viability", "setting": "Fedratinib + Alpelisib; first compound 1 µM", "value": 0.938}, {"measurement": "relative viability", "setting": "Fedratinib + Olaparib; first compound 0.1 µM", "value": 0.819}, {"measurement": "relative viability", "setting": "Fedratinib + Olaparib; first compound 0.3162 µM", "value": 0.753}, {"measurement": "relative viability", "setting": "Fedratinib + Olaparib; first compound 1 µM", "value": 0.773}]}
{"cell line": "NCI-H441", "values": [{"measurement": "relative viability", "setting": "GW-2580 + Luminespib; first compound 0.08 µM", "value": 0.307}, {"measurement": "relative viability", "setting": "GW-2580 + Luminespib; first compound 0.8 µM", "value": 0.621}, {"measurement": "relative viability", "setting": "GW-2580 + Luminespib; first compound 2.53 µM", "value": 0.493}, {"measurement": "relative viability", "setting": "GW-2580 + Luminespib; first compound 8 µM", "value": 0.293}, {"measurement": "relative viability", "setting": "Fedratinib + OSI-027; first compound 0.1 µM", "value": 0.443}, {"measurement": "relative viability", "setting": "Fedratinib + OSI-027; first compound 0.3162 µM", "value": 0.625}, {"measurement": "relative viability", "setting": "Fedratinib + OSI-027; first compound 1 µM", "value": 0.511}, {"measurement": "relative viability", "setting": "Fedratinib + Tozasertib; first compound 0.1 µM", "value": 0.412}, {"measurement": "relative viability", "setting": "Fedratinib + Tozasertib; first compound 0.3162 µM", "value": 0.538}, {"measurement": "relative viability", "setting": "Fedratinib + Tozasertib; first compound 1 µM", "value": 0.575}, {"measurement": "relative viability", "setting": "Fedratinib + Alpelisib; first compound 0.1 µM", "value": 0.607}, {"measurement": "relative viability", "setting": "Fedratinib + Alpelisib; first compound 0.3162 µM", "value": 0.655}, {"measurement": "relative viability", "setting": "Fedratinib + Alpelisib; first compound 1 µM", "value": 0.557}, {"measurement": "relative viability", "setting": "Fedratinib + Olaparib; first compound 0.1 µM", "value": 0.607}, {"measurement": "relative viability", "setting": "Fedratinib + Olaparib; first compound 0.3162 µM", "value": 0.481}, {"measurement": "relative viability", "setting": "Fedratinib + Olaparib; first compound 1 µM", "value": 0.525}]}
{"cell line": "NCI-H522", "values": [{"measurement": "relative viability", "setting": "GW-2580 + Luminespib; first compound 0.08 µM", "value": 1.22}, {"measurement": "relative viability", "setting": "GW-2580 + Luminespib; first compound 0.8 µM", "value": 1.57}, {"measurement": "relative viability", "setting": "GW-2580 + Luminespib; first compound 2.53 µM", "value": 1.14}, {"measurement": "relative viability", "setting": "GW-2580 + Luminespib; first compound 8 µM", "value": 1.24}, {"measurement": "relative viability", "setting": "Fedratinib + OSI-027; first compound 0.1 µM", "value": 0.629}, {"measurement": "relative viability", "setting": "Fedratinib + OSI-027; first compound 0.3162 µM", "value": 0.825}, {"measurement": "relative viability", "setting": "Fedratinib + OSI-027; first compound 1 µM", "value": 0.566}, {"measurement": "relative viability", "setting": "Fedratinib + Tozasertib; first compound 0.1 µM", "value": 0.527}, {"measurement": "relative viability", "setting": "Fedratinib + Tozasertib; first compound 0.3162 µM", "value": 0.514}, {"measurement": "relative viability", "setting": "Fedratinib + Tozasertib; first compound 1 µM", "value": 0.573}, {"measurement": "relative viability", "setting": "Fedratinib + Olaparib; first compound 0.1 µM", "value": 0.655}, {"measurement": "relative viability", "setting": "Fedratinib + Olaparib; first compound 0.3162 µM", "value": 0.643}, {"measurement": "relative viability", "setting": "Fedratinib + Olaparib; first compound 1 µM", "value": 0.615}]}
{"cell line": "NCI-H1299", "values": [{"measurement": "relative viability", "setting": "GW-2580 + Lapatinib; first compound 0.08 µM", "value": 1.04}, {"measurement": "relative viability", "setting": "GW-2580 + Lapatinib; first compound 0.8 µM", "value": 0.979}, {"measurement": "relative viability", "setting": "GW-2580 + Lapatinib; first compound 2.53 µM", "value": 0.959}, {"measurement": "relative viability", "setting": "GW-2580 + Lapatinib; first compound 8 µM", "value": 0.886}, {"measurement": "relative viability", "setting": "Fedratinib + Alpelisib; first compound 0.1 µM", "value": 1.08}, {"measurement": "relative viability", "setting": "Fedratinib + Alpelisib; first compound 0.3162 µM", "value": 1.07}, {"measurement": "relative viability", "setting": "Fedratinib + Alpelisib; first compound 1 µM", "value": 1.05}, {"measurement": "relative viability", "setting": "Fedratinib + Olaparib; first compound 0.1 µM", "value": 0.955}, {"measurement": "relative viability", "setting": "Fedratinib + Olaparib; first compound 0.3162 µM", "value": 0.881}, {"measurement": "relative viability", "setting": "Fedratinib + Olaparib; first compound 1 µM", "value": 0.904}]}
{"cell line": "NCI-H1563", "values": [{"measurement": "relative viability", "setting": "GW-2580 + Luminespib; first compound 0.08 µM", "value": 0.546}, {"measurement": "relative viability", "setting": "GW-2580 + Luminespib; first compound 0.8 µM", "value": 0.522}, {"measurement": "relative viability", "setting": "GW-2580 + Luminespib; first compound 2.53 µM", "value": 0.484}, {"measurement": "relative viability", "setting": "GW-2580 + Luminespib; first compound 8 µM", "value": 0.545}, {"measurement": "relative viability", "setting": "GW-2580 + Lapatinib; first compound 0.08 µM", "value": 0.895}, {"measurement": "relative viability", "setting": "GW-2580 + Lapatinib; first compound 0.8 µM", "value": 0.857}, {"measurement": "relative viability", "setting": "GW-2580 + Lapatinib; first compound 2.53 µM", "value": 0.831}, {"measurement": "relative viability", "setting": "GW-2580 + Lapatinib; first compound 8 µM", "value": 0.863}, {"measurement": "relative viability", "setting": "Fedratinib + OSI-027; first compound 0.1 µM", "value": 0.742}, {"measurement": "relative viability", "setting": "Fedratinib + OSI-027; first compound 0.3162 µM", "value": 0.812}, {"measurement": "relative viability", "setting": "Fedratinib + OSI-027; first compound 1 µM", "value": 0.754}, {"measurement": "relative viability", "setting": "Fedratinib + Alpelisib; first compound 0.1 µM", "value": 0.853}, {"measurement": "relative viability", "setting": "Fedratinib + Alpelisib; first compound 0.3162 µM", "value": 0.909}, {"measurement": "relative viability", "setting": "Fedratinib + Alpelisib; first compound 1 µM", "value": 0.916}]}
{"cell line": "NCI-H1623", "values": [{"measurement": "relative viability", "setting": "GW-2580 + Luminespib; first compound 0.08 µM", "value": 0.382}, {"measurement": "relative viability", "setting": "GW-2580 + Luminespib; first compound 0.8 µM", "value": 0.43}, {"measurement": "relative viability", "setting": "GW-2580 + Luminespib; first compound 2.53 µM", "value": 0.482}, {"measurement": "relative viability", "setting": "GW-2580 + Luminespib; first compound 8 µM", "value": 0.471}, {"measurement": "relative viability", "setting": "Fedratinib + OSI-027; first compound 0.1 µM", "value": 0.438}, {"measurement": "relative viability", "setting": "Fedratinib + OSI-027; first compound 0.3162 µM", "value": 0.48}, {"measurement": "relative viability", "setting": "Fedratinib + OSI-027; first compound 1 µM", "value": 0.38}, {"measurement": "relative viability", "setting": "Fedratinib + Tozasertib; first compound 0.1 µM", "value": 0.414}, {"measurement": "relative viability", "setting": "Fedratinib + Tozasertib; first compound 0.3162 µM", "value": 0.486}, {"measurement": "relative viability", "setting": "Fedratinib + Tozasertib; first compound 1 µM", "value": 0.397}]}
